Values joined by “and” are separate entries in the source; they are usually repeats but may differ in a detail not shown here. Equal entries are not always repeated.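 Cells were grown in 96-well plates and exposed to each compound for 48 hours at five concentrations; endpoints were interpolated linearly between bracketing concentrations, or set to the highest concentration if not reached. At the GI50, growth is halved. Definition used: TGI = concentration required for complete inhibition of growth.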
How the values were obtained:
Assay in all cases: NCI-60 cell line screen, 48 h
ACHN renal = system: ACHN renal
EKVX NSCLC = system: EKVX NSCLC
HCC-2998 colon = system: HCC-2998 colon
M14 melanoma = system: M14 melanoma
MDA-N = system: MDA-N
RPMI-8226 leukemia = system: RPMI-8226 leukemia
RXF 393 renal = system: RXF 393 renal
SR leukemia = system: SR leukemia
TK-10 renal = system: TK-10 renal

Structure (SMILES): CC1(C)Oc2ccc3ccc(=O)oc3c2C(O)C1O (stereo unspecified)
- TGI (ACHN renal): > 100 µM
- TGI (EKVX NSCLC): > 100 µM
- TGI (HCC-2998 colon): > 100 µM
- TGI (M14 melanoma): > 100 µM
- TGI (MDA-N): > 100 µM
- TGI (RPMI-8226 leukemia): 97.9 µM
- TGI (RXF 393 renal): > 100 µM
- TGI (SR leukemia): > 100 µM

Structure (SMILES): O=C1c2c(c(=O)[nH]c3ccccc23)[C@H](c2ccccc2)[C@@H]2CCCN12
- GI50 (ACHN renal): 2.64 µM
- TGI (ACHN renal): 14.9 µM
- GI50 (EKVX NSCLC): 13.5 µM
- TGI (EKVX NSCLC): 55.8 µM
- GI50 (HCC-2998 colon): 10.9 µM
- TGI (HCC-2998 colon): 69.6 µM
- GI50 (M14 melanoma): 3.53 µM
- TGI (M14 melanoma): 14.5 µM
- GI50 (RPMI-8226 leukemia): 4.83 µM
- TGI (RPMI-8226 leukemia): 48.4 µM
- GI50 (RXF 393 renal): 1.88 µM
- TGI (RXF 393 renal): 4.34 µM
- GI50 (SR leukemia): 2.61 µM
- TGI (SR leukemia): 36.7 µM
- GI50 (TK-10 renal): 20.5 µM
- TGI (TK-10 renal): > 100 µM

Structure (SMILES): Cc1ccc(OCC2CO2)c(Br)c1 (stereo unspecified)
- TGI (ACHN renal): 21.2 µM
- TGI (EKVX NSCLC): 35.8 µM
- TGI (HCC-2998 colon): 34.8 µM
- TGI (M14 melanoma): 95.9 µM
- TGI (MDA-N): 58.9 µM
- TGI (RPMI-8226 leukemia): 74.9 µM
- TGI (RXF 393 renal): 26.5 µM
- TGI (TK-10 renal): > 100 µM

Structure (SMILES): NC(=O)CC1OC(=O)Cc2cc3c(c(O)c21)C(=O)c1c(O)cccc1C3=O (stereo unspecified)
- TGI (ACHN renal): > 100 µM
- TGI (EKVX NSCLC): > 100 µM
- TGI (HCC-2998 colon): > 100 µM
- TGI (M14 melanoma): > 100 µM
- TGI (MDA-N): > 100 µM
- TGI (SR leukemia): > 100 µM
- TGI (TK-10 renal): > 100 µM

Structure (SMILES): CCOC(=O)C(=Cc1ccc(C#N)cc1)C(=O)OCC
- GI50 (ACHN renal): 1.78 µM
- TGI (ACHN renal): 3.46 µM
- GI50 (EKVX NSCLC): 4.83 µM
- TGI (EKVX NSCLC): 17.6 µM
- GI50 (HCC-2998 colon): 1.81 µM
- TGI (HCC-2998 colon): 3.43 µM
- GI50 (M14 melanoma): 1.89 µM
- TGI (M14 melanoma): 4.26 µM
- GI50 (RPMI-8226 leukemia): 2.65 µM
- TGI (RPMI-8226 leukemia): 7.71 µM
- GI50 (RXF 393 renal): 1.87 µM
- TGI (RXF 393 renal): 3.36 µM
- GI50 (SR leukemia): 1.31 µM
- TGI (SR leukemia): > 100 µM
- GI50 (TK-10 renal): 2.28 µM
- TGI (TK-10 renal): 7.3 µM

Structure (SMILES): Cn1ncc(Cl)c1-c1cc(C(=O)N[C@H](CN)Cc2cccc(F)c2)sc1Cl
- GI50 (ACHN renal): 2.57 µM and 2.76 µM
- TGI (ACHN renal): > 10 µM and 15.4 µM
- GI50 (EKVX NSCLC): 3.24 µM
- TGI (EKVX NSCLC): > 10 µM
- GI50 (HCC-2998 colon): 0.743 µM and 1.54 µM
- TGI (HCC-2998 colon): 2.67 µM and 4.87 µM
- GI50 (M14 melanoma): 1.1 µM and 2 µM
- TGI (M14 melanoma): 3.14 µM and 6.49 µM
- GI50 (RPMI-8226 leukemia): 1.65 µM and 2.06 µM
- TGI (RPMI-8226 leukemia): 5.8 µM and 6.11 µM
- GI50 (RXF 393 renal): 0.128 µM and 0.145 µM
- TGI (RXF 393 renal): 1.72 µM and 0.896 µM
- GI50 (SR leukemia): 0.749 µM and 1.54 µM
- TGI (SR leukemia): 3.11 µM and 4.74 µM
- GI50 (TK-10 renal): 0.531 µM and 1.73 µM
- TGI (TK-10 renal): 5.76 µM and 14.3 µM

Structure (SMILES): CC(C)(C)OC(=O)C1C(=O)NC(=O)CC1CC(OCc1ccccc1)C(OCc1ccccc1)C(COCc1ccccc1)OCc1ccccc1 (stereo unspecified)
- GI50 (ACHN renal): 60.2 µM and 18.8 µM
- TGI (ACHN renal): > 100 µM
- GI50 (EKVX NSCLC): 62.2 µM and 12.6 µM
- TGI (EKVX NSCLC): > 100 µM
- TGI (HCC-2998 colon): > 100 µM
- GI50 (M14 melanoma): 55.1 µM and 27.2 µM
- TGI (M14 melanoma): > 100 µM
- GI50 (MDA-N): > 100 µM and 34.2 µM
- TGI (MDA-N): > 100 µM
- GI50 (RPMI-8226 leukemia): 21.5 µM and 7.16 µM
- TGI (RPMI-8226 leukemia): > 100 µM and 34.1 µM
- TGI (RXF 393 renal): 99.7 µM and 32.6 µM
- GI50 (SR leukemia): 30.1 µM and 6.47 µM
- TGI (SR leukemia): > 100 µM
- TGI (TK-10 renal): > 100 µM

Structure (SMILES): O=S(=O)(N=C1C(Cl)=C(Cl)C(=NS(=O)(=O)c2ccccc2)C(Cl)=C1Cl)c1ccccc1
- GI50 (ACHN renal): 20.5 µM
- TGI (ACHN renal): 65 µM
- GI50 (EKVX NSCLC): 31.5 µM
- TGI (EKVX NSCLC): > 100 µM
- GI50 (HCC-2998 colon): 26.6 µM
- TGI (HCC-2998 colon): 64.6 µM
- GI50 (M14 melanoma): 16.5 µM
- TGI (M14 melanoma): 34.7 µM
- GI50 (RPMI-8226 leukemia): 23.9 µM
- TGI (RPMI-8226 leukemia): > 100 µM
- GI50 (RXF 393 renal): 15.8 µM
- TGI (RXF 393 renal): 30.9 µM
- GI50 (SR leukemia): 12.7 µM
- TGI (SR leukemia): > 100 µM
- GI50 (TK-10 renal): 24.9 µM
- TGI (TK-10 renal): 61.9 µM

Structure (SMILES): Cc1ccc2c(C(C[N+](=O)[O-])c3ccccc3)c(-c3ccccc3)[nH]c2c1 (stereo unspecified)
- GI50 (ACHN renal): 57.2 µM
- TGI (ACHN renal): > 95 µM
- GI50 (EKVX NSCLC): 75.9 µM
- TGI (EKVX NSCLC): > 95 µM
- GI50 (HCC-2998 colon): 73.7 µM
- TGI (HCC-2998 colon): > 95 µM
- GI50 (M14 melanoma): 16 µM
- TGI (M14 melanoma): > 95 µM
- GI50 (RPMI-8226 leukemia): 36.8 µM
- TGI (RPMI-8226 leukemia): > 95 µM
- GI50 (RXF 393 renal): 10.5 µM
- TGI (RXF 393 renal): 81.3 µM
- GI50 (SR leukemia): 4.54 µM
- TGI (SR leukemia): > 95 µM
- GI50 (TK-10 renal): > 95 µM
- TGI (TK-10 renal): > 95 µM

Structure (SMILES): COC(=O)/C=C1/SC(=Nc2cccc(Cl)c2)N(CCc2c[nH]c3ccc(O)cc23)C1=O
- GI50 (ACHN renal): 1.73 µM
- TGI (ACHN renal): 3.33 µM
- GI50 (EKVX NSCLC): 2.19 µM
- TGI (EKVX NSCLC): 5.51 µM
- GI50 (HCC-2998 colon): 1.88 µM
- TGI (HCC-2998 colon): 3.48 µM
- GI50 (M14 melanoma): 1.62 µM
- TGI (M14 melanoma): 3.36 µM
- GI50 (RPMI-8226 leukemia): 1.24 µM
- TGI (RPMI-8226 leukemia): 3.98 µM
- GI50 (RXF 393 renal): 1.51 µM
- TGI (RXF 393 renal): 2.97 µM
- GI50 (SR leukemia): 0.522 µM
- TGI (SR leukemia): 7.13 µM
- GI50 (TK-10 renal): 2.29 µM
- TGI (TK-10 renal): 5.65 µM

Structure (SMILES): CCCc1nn(C)c2c(=O)[nH]c(-c3cc(S(=O)(=O)N4CCN(C)CC4)ccc3OCC)nc12
- GI50 (ACHN renal): > 100 µM
- TGI (ACHN renal): > 100 µM
- GI50 (EKVX NSCLC): > 100 µM
- TGI (EKVX NSCLC): > 100 µM
- GI50 (HCC-2998 colon): > 100 µM
- TGI (HCC-2998 colon): > 100 µM
- GI50 (M14 melanoma): > 100 µM
- TGI (M14 melanoma): > 100 µM
- GI50 (RPMI-8226 leukemia): > 100 µM
- TGI (RPMI-8226 leukemia): > 100 µM
- GI50 (RXF 393 renal): > 100 µM
- TGI (RXF 393 renal): > 100 µM
- GI50 (SR leukemia): > 100 µM
- TGI (SR leukemia): > 100 µM
- GI50 (TK-10 renal): 94.3 µM
- TGI (TK-10 renal): > 100 µM

Structure (SMILES): CN1C(=O)CCC(N2C(=O)c3cccc(NCCOCCOCCNC(=O)c4cc5c(o4)C(=O)c4ccccc4C5=O)c3C2=O)C1=O (stereo unspecified)
- GI50 (ACHN renal): 2.04 µM
- TGI (ACHN renal): 5.17 µM
- GI50 (EKVX NSCLC): 2.59 µM
- TGI (EKVX NSCLC): 7.28 µM
- GI50 (HCC-2998 colon): 1.99 µM
- TGI (HCC-2998 colon): 3.96 µM
- GI50 (M14 melanoma): 1.35 µM
- TGI (M14 melanoma): 2.74 µM
- GI50 (RPMI-8226 leukemia): 2.32 µM
- TGI (RPMI-8226 leukemia): 7.06 µM
- GI50 (RXF 393 renal): 1.82 µM
- TGI (RXF 393 renal): 3.79 µM
- GI50 (SR leukemia): 1.99 µM
- TGI (SR leukemia): 7.5 µM
- GI50 (TK-10 renal): 3.5 µM
- TGI (TK-10 renal): 7.55 µM

Structure (SMILES): COc1ccc(NC(=O)Oc2ccc3c(C)cc(=O)oc3c2)c(OC)c1 (tested in a mixture with another compound)
- TGI (ACHN renal): > 100 µM
- TGI (EKVX NSCLC): > 100 µM
- TGI (HCC-2998 colon): > 100 µM
- TGI (M14 melanoma): > 100 µM
- TGI (MDA-N): > 100 µM
- TGI (RPMI-8226 leukemia): > 100 µM
- TGI (RXF 393 renal): > 100 µM
- TGI (TK-10 renal): > 100 µM

Structure (SMILES): COc1ccc(Br)cc1NC(=O)Nc1cccc2c1ccn2Cc1ccnc(N)c1
- GI50 (ACHN renal): 5.51 µM and 4.91 µM
- TGI (ACHN renal): 23.2 µM and > 10 µM
- GI50 (EKVX NSCLC): 7.36 µM and 9.64 µM
- TGI (EKVX NSCLC): > 100 µM
- GI50 (HCC-2998 colon): 4.41 µM and 4.33 µM
- TGI (HCC-2998 colon): 10.1 µM and > 10 µM
- GI50 (M14 melanoma): 3.09 µM and 2.68 µM
- TGI (M14 melanoma): 10.5 µM and > 10 µM
- GI50 (RPMI-8226 leukemia): 2.93 µM and 3.54 µM
- TGI (RPMI-8226 leukemia): > 31.6 µM
- GI50 (RXF 393 renal): 4.6 µM and 9.23 µM
- TGI (RXF 393 renal): 16.1 µM and > 10 µM
- GI50 (SR leukemia): 2.51 µM and 3.11 µM
- TGI (SR leukemia): 15.5 µM and > 10 µM
- GI50 (TK-10 renal): 5.33 µM and 7.07 µM
- TGI (TK-10 renal): 16.6 µM and > 10 µM

Structure (SMILES): CCC1=C(c2ccc(OC)cc2)C(C)(C)Oc2c1ccc(O)c2CN1CCCC1
- GI50 (ACHN renal): 3.6 µM
- TGI (ACHN renal): > 100 µM
- GI50 (EKVX NSCLC): 18.6 µM
- TGI (EKVX NSCLC): > 100 µM
- GI50 (HCC-2998 colon): 1.44 µM
- TGI (HCC-2998 colon): 2.88 µM
- GI50 (M14 melanoma): 1.65 µM
- TGI (M14 melanoma): 3.39 µM
- GI50 (RPMI-8226 leukemia): 0.721 µM
- TGI (RPMI-8226 leukemia): 2.45 µM
- GI50 (RXF 393 renal): 1.24 µM
- TGI (RXF 393 renal): 3.87 µM
- GI50 (SR leukemia): 0.927 µM
- TGI (SR leukemia): 3.63 µM
- GI50 (TK-10 renal): 5.26 µM
- TGI (TK-10 renal): 31.3 µM

Source: PubChem BioAssay (NCI)
